Tests used:
[1] = tested on: NCI-H460; assay: Cytotoxicity against human NCI-H460 cells after 48 hrs by SRB assay; assay type: functional; conditions: NCI-H460, 48 h
[2] = tested on: SF-268; assay: Cytotoxicity against human SF268 cells after 48 hrs by SRB assay; assay type: functional; conditions: SF-268, 48 h
[3] = tested on: MCF7; assay: Cytotoxicity against human MCF7 cells after 48 hrs by SRB assay; assay type: functional; conditions: MCF7, 48 h
[4] = tested on: HCT-116; assay: Cytotoxicity against human HCT116 cells after 48 hrs by SRB assay; assay type: functional; conditions: HCT-116, 48 h
[5] = (§1) Cytotoxicity against human NHDF cells after 48 hrs by SRB assay; assay type: cell-based; conditions: NHDF cells
[6] = tested on: NHDF; assay: as §1; assay type: cell-based; conditions: nhdf, 48 h
[7] = tested on: DMS-114; assay: Cytotoxicity against human DMS114 cells after 48 hrs by SRB assay; assay type: functional; conditions: DMS-114, 48 h
[8] = tested on: HCT-15; assay: Cytotoxicity against human HCT15 cells after 48 hrs by SRB assay; assay type: functional; conditions: HCT-15, 48 h
[9] = Cytotoxicity against human NCI-ADR-RES cells after 48 hrs by SRB assay; assay type: functional
[10] = tested on: SK-MEL-28; assay: Cytotoxicity against human SK-MEL-28 cells after 48 hrs by SRB assay; assay type: functional; conditions: SK-MEL-28, 48 h
[11] = tested on: U-251; assay: Cytotoxicity against human U251 cells after 48 hrs by SRB assay; assay type: functional; conditions: U-251, 48 h
[12] = Cytotoxicity against human MSC cells after 48 hrs by SRB assay; assay type: cell-based; conditions: for GI50 at 48 h: MSC cells; for TGI: msc, 48 h
[13] = tested on: LNCaP; assay: Cytotoxicity against human LNCAP cells after 48 hrs by SRB assay; assay type: functional
[14] = tested on: COLO 205; assay: Cytotoxicity against human COLO205 cells after 48 hrs by SRB assay; assay type: functional; conditions: COLO 205, 48 h
[15] = tested on: DU-145; assay: Cytotoxicity against human DU145 cells after 48 hrs by SRB assay; assay type: functional; conditions: DU-145, 48 h
[16] = tested on: PC-3; assay: Cytotoxicity against human PC3 cells after 48 hrs by SRB assay; assay type: functional; conditions: PC-3, 48 h
[17] = tested on: A549; assay: Cytotoxicity against human A549 cells after 48 hrs by SRB assay; assay type: functional; conditions: A549, 48 h
[18] = tested on: IGROV-1; assay: Cytotoxicity against human IGROV1 cells after 48 hrs by SRB assay; assay type: functional; conditions: IGROV-1, 48 h
[19] = tested on: MDA-MB-231; assay: Cytotoxicity against human MDA-MB-231 cells after 48 hrs by SRB assay; assay type: functional; conditions: MDA-MB-231, 48 h
[20] = Cytotoxicity against human CAKI cells after 48 hrs by SRB assay; assay type: functional
[21] = Cytotoxicity against human EKVX cells after 48 hrs by SRB assay; assay type: functional
[22] = tested on: OVCAR-5; assay: Cytotoxicity against human OVCAR5 cells after 48 hrs by SRB assay; assay type: functional; conditions: OVCAR-5, 48 h

Structure (SMILES) | GI50 [1] | TGI [1] | GI50 [2] | TGI [2] | GI50 [3] | TGI [3] | GI50 [4] | TGI [4] | GI50 [11] | TGI [11] | other results
c1ccc2c(c1)CNC1C3CC4CC(C3)CC21C4 (stereo not drawn) | 100 µM | 100 µM | 100 µM | 100 µM | 52 µM | 100 µM | 63.9 µM | 100 µM | – | – | –
O=c1[nH]cc(F)c(=O)[nH]1 [FLUOROURACIL] | 5.95 µM | > 100 µM | 49.2 µM | > 100 µM | 8.4 µM | > 100 µM | 9.51 µM | > 100 µM | – | – | –
CN(C)CCCNC1C2CC3CC(C2)CC1(Cc1ccccc1)C3 (stereo not drawn) | 5.78 µM | 25.8 µM | 9.09 µM | 40.9 µM | 9.11 µM | 42.9 µM | 6.76 µM | 34.8 µM | – | – | –
c1ccc(CC23CC4CC(CC(C4)C2NCCN2CCNCC2)C3)cc1 (stereo not drawn) | 7.49 µM | 46.8 µM | 22.2 µM | 53.6 µM | 21.1 µM | 52.7 µM | 7.02 µM | 50 µM | – | – | –
Cl.NC1C2CC3CC(C2)CC1(Cc1ccc(F)cc1)C3 (stereo not drawn) | 13.7 µM | 52 µM | 7.83 µM | 37.4 µM | 4.6 µM | 8.7 µM | 5.6 µM | 17.5 µM | 21.8 µM | 50.9 µM | GI50 at 48 h [5]: 17.9 µM; TGI [6]: 52.8 µM; GI50 [7]: 9.38 µM; TGI [7]: 50.4 µM; GI50 [8]: 19.4 µM; TGI [8]: 53.8 µM; GI50 [9]: 7.4 µM; TGI [9]: 24.4 µM; GI50 [10]: 13.2 µM; TGI [10]: 45 µM
COc1ccc(CC23CC4CC(CC(C4)C2N)C3)cc1.Cl (stereo not drawn) | 31.2 µM | 62.4 µM | 21.2 µM | 50.7 µM | 7.4 µM | 42.3 µM | 18.5 µM | 52.2 µM | 31.2 µM | 58 µM | GI50 at 48 h [12]: 24.8 µM; TGI [12]: 56.05 µM; GI50 at 48 h [5]: 27.7 µM; TGI [6]: 58.8 µM; GI50 [7]: 40.1 µM; TGI [7]: 73.9 µM; GI50 [8]: 38.8 µM; TGI [8]: 75 µM; GI50 [9]: 29.3 µM; TGI [9]: 55.3 µM; GI50 [10]: 31.8 µM; TGI [10]: 60.7 µM
CN(C)CCNC1C2CC3CC(C2)CC1(Cc1ccccc1)C3 (stereo not drawn) | – | – | 29.3 µM | 57.1 µM | 25.9 µM | 54.1 µM | 24 µM | 55.9 µM | – | – | GI50 [13]: 24.4 µM; TGI [13]: 54.7 µM; GI50 [7]: 26.5 µM; TGI [7]: 58.1 µM; GI50 [14]: 25.4 µM; TGI [14]: 59.9 µM
c1ccc(CC23CC4CC(CC(C4)C2NCCCn2ccnc2)C3)cc1 (stereo not drawn) | 31.5 µM | 67.5 µM | 28.8 µM | 62.8 µM | 27 µM | 56.1 µM | 26.8 µM | 64.7 µM | – | – | –
N[C@@H]1c2ccccc2C23CC4CC(CC(C4)[C@H]12)C3 (relative stereo) | – | – | – | – | – | – | – | – | 33 µM | 56.6 µM | GI50 [15]: 31.4 µM; TGI [15]: 66.1 µM; GI50 [16]: 21.3 µM; TGI [16]: 56.7 µM
NC1C2CC3CC(C2)CC1(c1ccccc1)C3 (stereo not drawn) | 100 µM | 100 µM | 100 µM | 100 µM | 69.3 µM | 100 µM | – | – | 100 µM | 100 µM | GI50 [14]: 84.5 µM; TGI [14]: 100 µM; GI50 [15]: 100 µM; TGI [15]: 100 µM; GI50 [16]: 82.9 µM; TGI [16]: 89.3 µM
c1ccc(CC23CC4CC(CC(C4)C2NCCCN2CCOCC2)C3)cc1 (stereo not drawn) | 50.7 µM | 100 µM | 56.4 µM | 100 µM | 28.9 µM | 58.5 µM | 44 µM | 100 µM | – | – | –
COc1cc([C@@H]2c3cc4c(cc3[C@@H](O[C@@H]3O[C@@H]5CO[C@@H](C)O[C@H]5[C@H](O)[C@H]3O)[C@H]3COC(=O)[C@H]23)OCO4)cc(OC)c1O [ETOPOSIDE] | – | – | 4.21 µM | 92.7 µM | – | – | – | – | – | – | –
c1ccc(CC23CC4CC(CC(C4)C2NCCN2CCCCC2)C3)cc1 (stereo not drawn) | 6.32 µM | 32.2 µM | 13.1 µM | 45.9 µM | 6.75 µM | 33.2 µM | 9.94 µM | 51.7 µM | – | – | –
Cl.NC1C2CC3CC(C2)CC1(Cc1ccccc1)C3 (stereo not drawn) | – | – | 21 µM | 56.8 µM | 5.5 µM | 9.5 µM | 6.59 µM | 35.8 µM | – | – | GI50 [17]: 8.67 µM; TGI [17]: 43.7 µM; GI50 at 48 h [12]: 9.55 µM; TGI [12]: 45.56 µM; GI50 [18]: 7.6 µM; TGI [18]: 36.5 µM; GI50 [19]: 6.68 µM; TGI [19]: 46.6 µM; GI50 [9]: 6.7 µM; TGI [9]: 30 µM; GI50 [14]: 7.12 µM; TGI [14]: 33.2 µM; GI50 [15]: 6.68 µM; TGI [15]: 29.8 µM; GI50 [20]: 6.54 µM; TGI [20]: 26.8 µM; GI50 [21]: 6.94 µM; TGI [21]: 29.2 µM; GI50 [22]: 8.35 µM; TGI [22]: 37.8 µM
N[C@H]1c2ccccc2C23CC4CC(CC(C4)[C@H]12)C3 (relative stereo) | – | – | – | – | 32.6 µM | 62.5 µM | – | – | 31.2 µM | 56.2 µM | GI50 [13]: 28.5 µM; TGI [13]: 61.2 µM; GI50 [14]: 35 µM; TGI [14]: 69.9 µM; GI50 [15]: 26.6 µM; TGI [15]: 37.6 µM

— ChEMBL document CHEMBL2429866, “New aminoadamantane derivatives with antiproliferative activity” (Med Chem Res, 2013)
